How the values were obtained:
[1] = molecular target: T1, mammalian dihydrofolate reductase (DHFR) (Rattus norvegicus, UniProt Q920D2); assay: Inhibition of mammalian dihydrofolate reductase (DHFR) partially purified from rat liver; assay type: biochemical
T1 construct: DHFR partially purified from rat liver; from tissue; host or cells: rat liver
T1 sequence (Q920D2 1-187): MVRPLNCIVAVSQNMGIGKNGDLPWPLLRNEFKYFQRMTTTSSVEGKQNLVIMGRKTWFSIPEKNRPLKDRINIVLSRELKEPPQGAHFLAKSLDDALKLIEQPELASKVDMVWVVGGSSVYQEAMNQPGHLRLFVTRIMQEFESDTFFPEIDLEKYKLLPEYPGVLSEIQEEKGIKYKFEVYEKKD
Experimental: Inhibition of Mammalian Dihydrofolate Reductase (DHFR) by […]-5-methyl-6-benzylpyrido(2,3-d)pyrimidines
The inhibitory effect of the test compounds against DHFR partially purified from rat liver was determined. An IC50 of 5×10^-8 M or less is considered significant potency, an IC50 of 1×10^-8 M or less being particularly significant potency.

[2] = molecular target: Histamine N-Methyltransferase (HMT) (Homo sapiens, UniProt P50135); assay: Inhibition of histamine N-methyltransferase (HMT); assay type: biochemical
Sequence of Histamine N-Methyltransferase (HMT) (P50135 whole entry, species assumed): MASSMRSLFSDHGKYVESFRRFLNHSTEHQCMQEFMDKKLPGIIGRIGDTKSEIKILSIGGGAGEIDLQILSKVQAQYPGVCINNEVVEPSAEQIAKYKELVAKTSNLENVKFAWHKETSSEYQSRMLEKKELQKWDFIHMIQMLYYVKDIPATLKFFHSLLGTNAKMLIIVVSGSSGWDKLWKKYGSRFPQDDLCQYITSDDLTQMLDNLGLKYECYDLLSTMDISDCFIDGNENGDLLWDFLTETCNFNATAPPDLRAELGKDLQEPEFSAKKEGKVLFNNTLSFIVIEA
Experimental: Inhibition of Histamine N-Methyltransferase
The effect of the test compounds used in Example 2 against HMT was determined. An inhibition of less than 20% was considered acceptable.

Q: Which “inhibitor of mammalian DHFR (in words)” value [1] does the source give for `COc1ccc(Cc2cnc3nc(N)nc(N)c3c2C)cc1OC` [2,4-Diamino-6-(3,4-dimethoxybenzyl)-5-methylpyrido[2,3-d]pyrimidine] here?
A: very potent inhibitor of mammalian DHFR

Q: What about the “inhibitory activity against HMT (in words)” value [2] of the same compound?
A: acceptably low inhibitory activity against HMT

Source: patent publication US4512992A, “Treatment with dialkoxy pyridopyrimidine compounds” (Burroughs Wellcome Co., priority 1981, dated 1985)
